Laboratory results from patent US20060173048A1, “Imidazole derivatives” (priority 2005, published 2006).

CCn1c(C(OCCO)(c2cccc(C(F)(F)F)c2)c2cccc(C(F)(F)F)c2)nc(-c2ccncc2)c1-c1ccc(Cl)cc1 [Example 52, 2-[[5-(4-Chloro-phenyl)-1-ethyl-4-pyridin-4-yl-1H-imidazol-2-yl]-bis-(3-trifluoromethyl-phenyl)-methoxy]-ethanol]
melting point: 222 to 223 °C

CCn1c(C(c2cccc(F)c2)c2cccc(F)c2)nc(-c2ccncc2)c1-c1ccc(Cl)cc1 [Example 53, 4-[2-[Bis-(3-fluoro-phenyl)-methyl]-5-(4-chloro-phenyl)-1-ethyl-1H-imidazol-4-yl]-pyridine]
melting point: 184 to 186 °C

C=CCn1c(-c2c(C)cc(C)cc2C)nc(-c2ccncc2)c1-c1ccc(C)cc1 [Example 23, 4-[1-Allyl-5-(4-methyl-phenyl)-2-(2,4,6-trimethyl-phenyl)-1H-imidazol-4-yl]-pyridine]
melting point: 115 to 118 °C

CCn1c(-c2c(C)cccc2C)nc(-c2ccncc2)c1-c1ccc(Cl)cc1 [Example 14, 4-[5-(4-Chloro-phenyl)-2-(2,6-dimethyl-phenyl)-1-ethyl-1H-imidazol-4-yl]-pyridine]
melting point: 171 to 173 °C

CCn1c(-c2ccccc2)nc(-c2ccncc2)c1-c1ccc(Cl)cc1 [Example 9, 4-[5-(4-Chloro-phenyl)-1-ethyl-2-phenyl-1H-imidazol-4-yl]-pyridine]
melting point: 267 to 270 °C

CCn1c(-c2cc3ccccc3[nH]2)nc(-c2ccncc2)c1-c1ccc(Cl)cc1 [Example 33, 2-[5-(4-Chloro-phenyl)-1-ethyl-4-pyridin-4-yl-1H-imidazol-2-yl]-1H-indole]
melting point: 279 to 280 °C

CCn1c(-c2ccc(C(F)(F)F)cc2C(F)(F)F)nc(-c2ccncc2)c1-c1ccc(Cl)cc1 [Example 30, 4-[2-(2,4-Bis-trifluoromethyl-phenyl)-5-(4-chloro-phenyl)-1-ethyl-1H-imidazol-4-yl]-pyridine]
melting point: 148 to 150 °C

CCn1c(-c2c(C)cc(C)cc2C)nc(-c2ccncc2)c1-c1ccc(C(F)(F)F)cc1 [Example 13, 4-[1-Ethyl-5-(4-trifluoromethyl-phenyl)-2-(2,4,6-trimethyl-phenyl)-1H-imidazol-4-yl]-pyridine]
melting point: 227 to 228 °C

OCCCn1c(-c2c(Cl)cccc2Cl)nc(-c2ccncc2)c1-c1ccc(Cl)cc1 [Example 29, 3-[5-(4-Chloro-phenyl)-2-(2,6-dichloro-phenyl)-4-pyridin-4-yl-imidazol-1-yl]-propan-1-ol]
melting point: 233 to 235 °C

CCn1c(C(O)(c2ccccc2)c2ccccc2)nc(-c2ccncc2)c1-c1ccc(Cl)cc1 [Example 44, [5-(4-Chloro-phenyl)-1-ethyl-4-pyridin-4-yl-1H-imidazol-2-yl]-diphenyl-methanol]
melting point: 222 to 223 °C

CCCn1c(-c2c(Cl)cccc2Cl)nc(-c2ccncc2)c1-c1ccc(Cl)cc1 [Example 49, 4-[5-(4-Chloro-phenyl)-2-(2,6-dichloro-phenyl)-1-propyl-1H-imidazol-4-yl]-pyridine]
melting point: 220 to 222 °C

CCn1c(-c2c(C)cc(C)cc2C)nc(-c2ccncc2)c1-c1ccc(Cl)cc1Cl [Example 6, 4-[1-Ethyl-5-(2,4-dichloro-phenyl)-2-(2,4,6-trimethyl-phenyl)-1H-imidazol-4-yl]-pyridine]
melting point: 191 to 193 °C

CCn1c(-c2ccccc2Cl)nc(-c2ccncc2)c1-c1ccc(Cl)cc1 [Example 15, 4-[5-(4-Chloro-phenyl)-2-(2-chloro-phenyl)-1-ethyl-1H-imidazol-4-yl]-pyridine]
melting point: 144 to 147 °C

C=CCn1c(-c2c(C)cc(C)cc2C)nc(-c2ccncc2)c1-c1ccc(C(F)(F)F)cc1 [Example 20, 4-[1-Allyl-5-(4-trifluoromethyl-phenyl)-2-(2,4,6-trimethyl-phenyl)-1H-imidazol-4-yl]-pyridine]
melting point: 209 to 210 °C

CCCn1c(-c2c(Cl)cccc2Cl)nc(-c2ccncc2)c1-c1ccc(C)cc1 [Example 50, 4-[2-(2,6-Dichloro-phenyl)-1-propyl-5-(4-methyl-phenyl)-1H-imidazol-4-yl]-pyridine]
melting point: 200 to 201 °C
